In experiment [1] the test system is mice. Put plainly: Temperature gradient. It counts as in vivo, mouse.
The test system of experiment [2] is mice. The experiment in a line: Indirect calorimetry. The conditions noted are these: C57BL/6J mice, 100 mg/kg, i.p. It counts as in vivo, mouse.
Experiment [3] concerns mice. Put plainly: Body temperature. It counts as in vivo, mouse.
The conditions of experiment [4]: 500–3500 mg/kg, i.p.; ref Zhang et al, 2006; cited from earlier work.
Experiment [5] has as its target T1, Human A2AAR (Homo sapiens, UniProt P29274). Conditions: read-out: Ki, human A2AAR; ref Tosh et al, 2012b; cited from earlier work.
Experiment [6] has as its target T2, mouse A2AAR (Mus musculus, UniProt Q60613). Conditions: read-out: Ki, mouse A2AAR, 2006, cited from earlier work.
The target in experiment [7] is T3, mouse A1AR (Mus musculus, UniProt Q60612).
T3 sequence (Q60612 1-326): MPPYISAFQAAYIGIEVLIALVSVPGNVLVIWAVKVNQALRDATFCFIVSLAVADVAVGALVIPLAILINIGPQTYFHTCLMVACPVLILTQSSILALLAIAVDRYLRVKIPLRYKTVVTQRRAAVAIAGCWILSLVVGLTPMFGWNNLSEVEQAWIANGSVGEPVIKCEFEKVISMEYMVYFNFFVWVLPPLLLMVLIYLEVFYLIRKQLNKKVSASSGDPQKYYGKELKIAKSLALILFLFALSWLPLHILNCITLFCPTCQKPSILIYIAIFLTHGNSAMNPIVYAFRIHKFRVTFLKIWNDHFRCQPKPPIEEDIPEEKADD
The experiment in a line: Radioligand binding, recombinant mouse A1AR in HEK-293 membranes.

In experiment [8] the target is T4, mouse A3AR (Mus musculus, UniProt Q61618).
T4 sequence (Q61618 1-319): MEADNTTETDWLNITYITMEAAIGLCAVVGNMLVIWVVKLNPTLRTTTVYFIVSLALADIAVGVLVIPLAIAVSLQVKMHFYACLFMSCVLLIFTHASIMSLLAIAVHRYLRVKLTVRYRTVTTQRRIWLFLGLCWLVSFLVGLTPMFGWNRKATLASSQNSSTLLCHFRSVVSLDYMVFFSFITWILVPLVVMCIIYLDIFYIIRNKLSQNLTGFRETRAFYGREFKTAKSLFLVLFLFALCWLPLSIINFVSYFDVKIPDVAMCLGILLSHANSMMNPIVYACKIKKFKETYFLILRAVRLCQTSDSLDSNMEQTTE
Put plainly: Radioligand binding, recombinant mouse A3AR in HEK-293 membranes.

The target of experiment [9] is T3, mouse A1AR. The conditions noted are these: read-out: Ki, mouse A1AR, cited from earlier work.
Experiment [10] addresses T4, mouse A3AR. The conditions noted are these: cited from earlier work.
The next experiment deals with T5, Human A1AR (Homo sapiens, UniProt P30542).
T5 sequence (P30542 1-326): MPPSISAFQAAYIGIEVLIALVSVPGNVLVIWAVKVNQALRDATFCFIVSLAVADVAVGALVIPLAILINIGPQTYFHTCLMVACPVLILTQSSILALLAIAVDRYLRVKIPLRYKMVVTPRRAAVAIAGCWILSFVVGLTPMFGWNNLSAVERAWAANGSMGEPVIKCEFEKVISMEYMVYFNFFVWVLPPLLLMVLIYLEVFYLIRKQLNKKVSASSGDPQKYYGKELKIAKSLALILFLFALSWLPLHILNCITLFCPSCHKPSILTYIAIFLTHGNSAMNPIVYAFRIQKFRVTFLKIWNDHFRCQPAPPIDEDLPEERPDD
The experiment in a line: Ligand binding affinity at human A1AR.

The target of experiment [11] is T1, Human A2AAR. The experiment in a line: Ligand binding affinity at human A2AAR.
For another experiment, the target named is T6, Human A3AR (Homo sapiens, UniProt P0DMS8).
T6 sequence (P0DMS8 1-318): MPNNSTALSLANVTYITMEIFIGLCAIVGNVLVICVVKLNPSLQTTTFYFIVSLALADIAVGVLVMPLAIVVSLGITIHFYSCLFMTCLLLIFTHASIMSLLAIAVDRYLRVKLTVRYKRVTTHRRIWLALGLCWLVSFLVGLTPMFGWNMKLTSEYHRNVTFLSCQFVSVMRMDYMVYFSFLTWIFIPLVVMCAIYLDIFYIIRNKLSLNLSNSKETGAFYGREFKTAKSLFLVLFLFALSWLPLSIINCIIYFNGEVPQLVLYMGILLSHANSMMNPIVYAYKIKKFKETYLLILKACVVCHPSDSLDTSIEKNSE
The experiment in a line: Ligand binding affinity at human A3AR.

The target of experiment [12] is T2, mouse A2AAR. The experiment in a line: Radioligand binding, recombinant mouse A2AAR in HEK-293 membranes. Conditions: read-out: % inhibition at 10 µM, mouse A2AAR.
[13] abbreviates: C57BL/6J mice, 100 µg/mouse (~3.3 mg/kg), i.c.v.
Setting [14] is: C57BL/6J mice, 0.03–3 mg/kg, i.p.
The mark [15] stands for this setting: C57BL/6J mice, 0.02–0.2 mg/kg, i.p., dose-dependent.

Like-named read-outs stand apart in the source and are kept apart here.

T2 sequence (Q60613 whole entry): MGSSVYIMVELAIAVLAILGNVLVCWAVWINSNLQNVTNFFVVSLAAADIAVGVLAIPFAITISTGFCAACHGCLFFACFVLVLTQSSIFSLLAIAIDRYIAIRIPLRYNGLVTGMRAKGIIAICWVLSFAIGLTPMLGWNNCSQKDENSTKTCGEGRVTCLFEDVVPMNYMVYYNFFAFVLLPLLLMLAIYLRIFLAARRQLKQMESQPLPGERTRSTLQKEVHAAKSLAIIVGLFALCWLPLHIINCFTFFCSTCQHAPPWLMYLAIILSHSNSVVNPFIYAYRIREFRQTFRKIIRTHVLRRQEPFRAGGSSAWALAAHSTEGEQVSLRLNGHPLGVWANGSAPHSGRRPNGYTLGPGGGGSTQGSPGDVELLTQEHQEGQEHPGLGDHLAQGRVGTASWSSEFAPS
T1 sequence (P29274 whole entry): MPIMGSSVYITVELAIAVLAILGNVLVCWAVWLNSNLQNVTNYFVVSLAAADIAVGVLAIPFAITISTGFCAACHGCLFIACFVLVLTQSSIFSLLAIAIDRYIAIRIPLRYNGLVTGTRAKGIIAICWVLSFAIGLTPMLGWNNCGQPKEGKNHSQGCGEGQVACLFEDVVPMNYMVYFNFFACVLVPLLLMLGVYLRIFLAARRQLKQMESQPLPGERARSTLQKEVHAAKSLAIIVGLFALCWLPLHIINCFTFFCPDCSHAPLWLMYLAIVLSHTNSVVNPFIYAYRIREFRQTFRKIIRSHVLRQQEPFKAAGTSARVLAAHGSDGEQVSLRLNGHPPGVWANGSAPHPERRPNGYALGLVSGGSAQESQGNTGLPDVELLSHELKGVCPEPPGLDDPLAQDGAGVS

`Nc1ncnc2c1ncn2[C@@H]1O[C@H](COP(=O)(O)O)[C@@H](O)[C@H]1O` [AMP, adenosine 5'-monophosphate]: the Ambient temperature preference result with mice [1] (100 mg/kg, i.p., not shown) was “did not observe a clear change”. In the experiment on mice [1] (setting [13]), the “Activity in thermal gradient” value is “without a significant drop in activity”. In addition, in the experiment on mice [1] (C57BL/6J mice, 300 mg/kg, i.p.), the “Activity in thermal gradient” value is “became immobile” and the “Position in thermal gradient” value is reported as “moved to a cooler region”. Also, in the experiment on mice [2], the “Effect on metabolic rate (total energy expenditure)” value was “drop in metabolic rate that preceded the hypothermia”, the “Time of TEE nadir” value was ~ 40 min and the “Time of Tb nadir” value is on record as ~ 60 min. Also, the “Hypothermia from i.c.v. dosing in Adora1−/− mice” value in the experiment with mice [3] (100 µg/mouse (~3.3 mg/kg), i.c.v.) is recorded as “not attenuated”. In the experiment on mice [3] (100 mg/kg, i.p.), the “Hypothermia in Adora1−/− mice” value was “intact”, the “Hypothermia in Adora1−/−;Adora3−/− double knockout mice” value is given as “intact”, the “Hypothermia in Adora3−/− mice” value was “intact” and the “Hypothermia in Kit W-sh/W-sh mice” value is given as “partially intact”. For the same compound, the “Hypothermia after pretreatment with raclopride” value in the experiment with mice [3] (AMP 100 mg/kg, i.p., raclopride 2 mg/kg, data not shown) is given as “did not block”. Further, in the experiment with mice [3] (Adora1−/− mice, AMP 100 mg/kg, i.p., pyrilamine 10 mg/kg, data not shown), the “Hypothermia after pretreatment with pyrilamine” value is reported as “did not ablate”. The “Effect on Tb, i.c.v. infusion” value in the experiment on mice [3] (setting [13]) is listed as “drop in Tb that was comparable to a 30-fold larger (100 mg/kg) systemic dose”. Further, the “Torpor induction by large doses” value in experiment [4] is on record as “induce torpor”.
For `O[C@@H]1[C@@H]2C[C@@H]2C(n2cnc3c(NC(C4CC4)C4CC4)nc(Cl)nc32)[C@@H]1O` (stereo partly drawn) [MRS5474, (1R,2R,3S,5S)-4-(2-chloro-6-((dicyclopropylmethyl)amino)-9H-purin-9-yl)bicyclo[3.1.0]hexane-2,3-diol], the Ki on Human A2AAR [5] was 3950 nM. Also, in the experiment with mice [3] (3 mg/kg, i.p.), the “Receptor mediating hypothermia (Adora1−/− and Adora3−/− mice)” value is reported as “via A3AR, without a clear contribution from A1AR”. In addition, the “Hypothermia after pretreatment with raclopride” value in the experiment on mice [3] (3 mg/kg, i.p., raclopride 1 mg/kg, data not shown) is “not inhibited”. Further, in the experiment with mice [3] (mice, doses in Fig. S2A,B), the “Effect on Tb” value is given as “dose-dependent hypothermia”. The “Effect on physical activity” value with mice [3] (mice, doses in Fig. S2A,B and data not shown) is recorded as “hypoactivity”.
`CNC(=O)[C@H]1O[C@@H](n2cnc3c(NCc4cccc(I)c4)nc(Cl)nc32)[C@H](O)[C@@H]1O` [Cl-IB-MECA, 2-chloro-N6-(3-iodobenzyl)adenosine-5'-N-methylcarboxamide]: the Ki at mouse A2AAR [6] (ref Ge et al) was approximately 10000 nM.
In the case of `OC[C@H]1O[C@@H](n2cnc3c(NC4CCCC4)ncnc32)[C@H](O)[C@@H]1O` [CPA, N^6-cyclopentyladenosine], in the experiment on mice [3] (0.3 mg/kg, i.p.), the “Hypothermia in Adora1−/− mice vs wild type” value is given as “not significantly attenuated” and the “Hypothermia in Adora3−/− mice vs wild type” value is recorded as “attenuated but still present”. For the same compound, in the experiment on mice [3] (setting [14]), the “Effect on Tb” value is given as “dose-dependent (0.03–3 mg/kg, i.p.) hypothermia” and the “Effect on physical activity” value is recorded as “reduction in physical activity”.
`CCNC(=O)[C@H]1O[C@@H](n2cnc3c(N)nc(NCCc4ccc(CCC(=O)O)cc4)nc32)[C@H](O)[C@@H]1O` [CGS21680]: the values for the Ki on mouse A1AR [7] and on mouse A3AR [8] were 193 ± 38 nM and 48 ± 11 nM, respectively.
On to `OC[C@H]1O[C@@H](n2cnc3c(NC4CCCC4)nc(Cl)nc32)[C@H](O)[C@@H]1O` [CCPA, 2-chloro-N^6-cyclopentyladenosine], for which the Ki is 0.27 nM at mouse A1AR [9] (ref Alnouri et al, 2015) and 16 nM at mouse A3AR [10] (read-out: Ki, mouse A3AR, ref Alnouri et al, 2015).
With `OC[C@H]1O[C@@H](n2cnc3c(NC4CCCCC4)ncnc32)[C@H](O)[C@@H]1O` [CHA, N^6-cyclohexyladenosine], the Ki on mouse A1AR [7] was 2.15 ± 0.37 nM. Moreover, in the experiment on mice [3] (0.05 mg/kg, i.p.), the “Hypothermia in Adora1−/− mice vs wild type” value is reported as “attenuated”, the “Hypothermia in Adora1−/−;Adora3−/− double knockout mice” value is on record as “completely lost” and the “Hypothermia in Adora3−/− mice vs wild type” value is reported as “attenuated”. In the experiment on mice [3] (setting [15]), the “Effect on Tb” value was “drop in Tb”, the “Effect on duration of hypothermia” value was “increase in duration of hypothermia” and the “Effect on physical activity” value is listed as “reduced physical activity”.
Consider `CNC(=O)[C@H]1O[C@@H](n2cnc3c(NCc4cccc(I)c4)ncnc32)[C@H](O)[C@@H]1O` [IB-MECA], for which the Ki at mouse A2AAR [6] (ref Ge et al) was approximately 1000 nM.
In the case of `CCCn1c(=O)c2[nH]c(C3CCCC3)nc2n(CCC)c1=O` [DPCPX], the Ki was 598 nM at mouse A2AAR [6] (ref Kreckler et al) and 1.5 nM at mouse A1AR [9] (ref Kreckler et al, 2006). In addition, the “% inhibition at 10 µM, mouse A3AR” value at mouse A3AR [10] (10 µM, ref Kreckler et al, 2006) is reported as 0%.
For `COc1ccc(CN(CCN(C)C)c2ccccn2)cc1` [Pyrilamine, pyrilamine], the “Effect of H1R antagonist on MRS5474-induced hypothermia” value in the experiment on mice [3] (MRS5474 at dose selective for A3AR, inhibitor dosed 15 min before agonist) is “inhibited hypothermia”. Besides, the “Effect of H1R antagonist on A1AR agonist-induced hypothermia” value in the experiment with mice [3] (inhibitor dosed 15 min before agonist, Fig. S4A–D) is “did not block”.
For `O=S(=O)(O)c1ccc(Nc2ncnc3c2ncn3[C@@H]2O[C@H](CO)[C@@H](O)[C@H]2O)cc1` [SPA, N^6-(p-sulfo-phenyl)adenosine], the inhibitory constant (Ki) on Human A1AR came out at 7.92 ± 1.55 nM; at mouse A1AR [7], 1.08 ± 0.04 nM; on mouse A3AR [8] it was 3110 ± 183 nM; at Human A2AAR [11], 3780 ± 890 nM; at Human A3AR, 246 ± 21 nM. In addition, the “Selectivity for binding to mouse A1AR over A3AR” value on mouse A1AR [7] (from Table 1 Ki values) is ~ 3000 fold. In addition, the inhibition at 10 µM at mouse A2AAR [12] turned out to be 33 ± 2%.

Source of the values: publication PMC5183552 (Neuropharmacology, 2016).
